{"source": "patent US20240065999A1", "about": "“Ophthalmic Formulation Containing a Dopaminergic Prodrug that may be Combined with One or More Agents” (The Board of Trustees of the Leland Stanford Junior …, priority 2020, published 2024)", "key": {"[1]": {"test_system": "myopic progression", "conditions": "ATOM trial, cited from earlier work"}, "[2]": {"conditions": "pig, 24 h, 0.5 %", "quoted_text": "(§1) To assess the vitreous penetration, dopamine (dopamine hydrochloride; Sigma-Aldrich, St. Louis, Mo., USA), and etilevodopa (BOC Sciences, Shirley, N.Y., USA) were freshly dissolved in phosphate buffered saline solution (PBS, pH 7.4; Aniara, West Chester, Ohio, USA) at the concentration of 0.5%, whereas levodopa (Sigma-Aldrich) was freshly dissolved in distilled water at 0.5%. Thirty microliters of each solution was placed onto the cornea of enucleated porcine eyes (Animal Technologies, Tyler, Tex., USA; at least six porcine eyes were studied for each treatment), which were no more than 30 hours since enucleation and were maintained on ice throughout experimentation. PBS was used as a vehicle control. The vitreous humor sample was collected after 24 hours for quantitative measurement of dopaminergic derivative level using an enzyme-linked immunosorbent assay (ELISA) kit according to the manufacturers' protocol (dopamine ELISA kit; Immuno-Biological Laboratories, Inc., Minneapolis, Minn., USA)."}, "[3]": {"test": "In vivo pharmacokinetics after a single topical treatment of etilevodopa 10% in Long Evans rat eyes", "conditions": "single topical etilevodopa 10%, noncompartmental analysis", "method": "To assess the short-term pharmacokinetic effect, 5 μL of etilevodopa 10% was instilled onto a rat eye. At one, two, four, eight, and 24 hours, rats were sacrificed (at least three rats were studied at each time point). Serum was obtained by allowing the blood sample to clot at room temperature for 0.5 to 1 hour, followed by centrifuging at 13,000 rpm for 10 minutes (MiniSpin Eppendorf; Thermo Fisher Scientific, Waltham, Mass., USA). Serum was then frozen at −80° C. until tested. Eyes were enucleated and collected for quantitative measurement of dopaminergic derivative levels. Concentrations of dopaminergic derivative in both whole eye and vitreous/retina were measured for pharmacokinetic evaluation. Briefly, tissue samples were incubated with 150 μL lysis buffer (CelLytic MT Cell Lysis Reagent; Sigma-Aldrich) for 0.5 to 1 hour, followed by centrifuge at 13,000 rpm for 10 minutes, and the supernatant was collected. All samples were immediately frozen at −80° C. until tested. The level of dopaminergic derivative was measured in both serum and eye using a dopamine ELISA kit (Immuno-Biological Laboratories, Inc.) according to the manufacturer's instruction."}, "[4]": {"test_system": "Long Evans rat eyes", "test": "Clinical examination, OCT imaging and ERG after once-daily topical etilevodopa", "assay_type": "in vivo", "method": "Etilevodopa 10% 5 μL was administered as an eye drop once daily to one eye of each rat for 28 consecutive days, and the contralateral eye received PBS as a control. To assess the tolerability after administering etilevodopa over time, clinical examination was conducted at 14 and 28 days during treatment. To assess retinal structure and function, spectral-domain OCT (Spectralis HRA+OCT instrument; Heidelberg Engineering, Heidelberg, Germany) and full-field ERG (D300; Diagnosys LLC, Lowell, Mass., USA) were also performed at 14 and 28 days. Briefly, rats were first anesthetized with intraperitoneal injection of a mixture of ketamine hydrochloride (75 mg/kg; Hospira, Inc., Lake Forest, Ill., USA) and xylazine (5 mg/kg; Bedford Laboratories, Bedford, Ohio, USA). The corneas were topically anesthetized with tetracaine 0.5% (Alcon Laboratories, Inc. Fort Worth, Tex., USA), and the pupils were dilated with tropicamide 1% (Akorn, Inc., Lake Forest, Ill., USA) and phenylephrine hydrochloride 2.5% (Akorn, Inc.).\nFor clinical examination, 1% methylcellulose and a plastic coverslip were applied to the cornea to enhance visualization. A Zeiss OPMI MDO S5 Microscope (Prescott's, Inc., Monument, Col., USA) with an Excelis camera (ACCU-SCOPE, Inc., Commack, N.Y., USA) was used to digitally record ocular photos.\nFor OCT, 1% methylcellulose and a coverslip were placed on the anesthetized rat cornea. A commercially available 78-D double aspheric fundus lens (Volk Optical, Inc., Mentor, Ohio, USA) was mounted in front of the OCT and images were taken with proprietary software (Eye Explorer, version 3.2.1.0; Heidelberg Engineering). A raster scan of 19 equally spaced horizontal B-scans centered on the optic nerve was captured.\nFor full-field ERG, rats were dark-adapted overnight. A gold wire loop was placed on the cornea of both eyes, a reference electrode was placed subcutaneously on the nose, and a ground electrode was placed in the tail. ERG responses were recorded from both eyes simultaneously. The flash intensity was set at six increasing intensities of 0.0001, 0.001, 0.01, 0.1, 1, and 3 cd·s/m2. ERG recordings were averaged over 10 presentations of a single one-millisecond flash with a 10-second interstimulus interval. The A-wave amplitude was measured from the baseline to trough, while the B-wave was measured from the trough to peak."}, "[5]": {"test_system": "rat eyes", "test": "Histology and immunohistochemistry (H&E, cleaved caspase-3, TUNEL) of rat eyes", "assay_type": "in vivo, Long Evans rat", "conditions": "5 μL etilevodopa 10% once daily, 14 and 28 days", "method": "To assess for inflammation and apoptosis, 5 μL of etilevodopa 10% was administered as a once-daily eye drop to one eye of each rat, and the contralateral eye received PBS as a control. Rat eyes were enucleated at 14 and 28 days after treatment and fixed in 4% paraformaldehyde (VWR, Visalia, Calif., USA) overnight at 4° C., dehydrated in graded series of sucrose and alcohol, frozen, and cut into 12 μm sections onto glass slides.\nFor inflammation, frozen sections were first fixed in 10% formalin (Sigma-Aldrich) for 20 minutes and washed in water, followed by staining the nuclei with hematoxylin for three minutes and washing in water again. The slides were then dipped in lithium carbonate (bluing agent) for 45 seconds, washed in water, immersed in 95% ethanol (2-3 dips), and stained with eosin for another three minutes. After dehydrating in 95% ethanol for one minute and then in 100% ethanol for two minutes, the slides were mounted with Cytoseal 60 and imaged using Nikon Eclipse E800 microscope (Nikon Corp., Tokyo, Japan).\nFor apoptosis, sections were stained with cleaved caspase-3 (Cell Signaling, Beverly, Mass., USA). Briefly, sections were first washed with washing buffer (0.1% Triton X-100 in PBS) three times for five minutes each, blocked with 5% bovine serum albumin (Fraction V; Sigma-Aldrich) in washing buffer for one hour, followed by incubating in primary antibody-cleaved caspase-3 (1:200 in washing buffer) for two hours. After washing three times for five minutes each, sections were incubated in secondary antibody (AlexaFluor 488 donkey anti-rabbit IgG; 1:400; Invitrogen, Waltham, Mass., USA) in washing buffer for one hour, followed by washing another three times and mounting with 4′,6-diamidino-2-phenylindole (DAPI)-containing mounting media (Vectashield; Vector Laboratories, Burlingame, Calif., USA). Slides were imaged using Leica DMi8 microscope (Leica Microsystems Inc., Buffalo Grove, Ill., USA). Terminal deoxynucleotidyl transferase dUTP nick end labeling (TUNEL) assay was also performed to further detect apoptosis using TUNEL label mix kit (Sigma-Aldrich). […]"}, "[6]": {"test": "Maximum solubility / achievable concentration of topical solutions", "assay_type": "physicochemical", "from_the_text": "PBS was used as a vehicle control."}, "[7]": {"test": "Observation of rat behavior during the 28-day study", "assay_type": "in vivo", "conditions": "once-daily topical etilevodopa"}, "[8]": {"test": "Ex vivo ocular penetration of dopamine and dopaminergic derivatives in enucleated porcine eyes (dopamine ELISA)", "conditions": "topical", "quoted_text": "as §1"}, "[9]": {"conditions": "ibopamine for hypotony, before 24 weeks; cited from earlier work"}, "[10]": {"test_system": "axial elongation", "test": "Reduction of axial elongation by levodopa in chicks (Thomson et al.)", "assay_type": "in vivo", "conditions": "Gallus gallus; calculated using a chick vitreous volume of 200 μL; read-out: EC50 as intravitreal concentration"}, "[11]": {"test_system": "axial elongation", "conditions": "chick, Thomson et al., cited from earlier work"}, "[12]": {"test_system": "intravitreal dopamine", "conditions": "chick eyes with negative lenses, after three days of treatment; cited from earlier work"}, "[13]": {"conditions": "1% atropine nightly in one eye over two years"}}, "note": "Counter-ions that a name gives are not always drawn. Like-named read-outs stand apart in the source and are kept apart here."}
{"compound": "CN1[C@@H]2CC[C@H]1C[C@@H](OC(=O)C(CO)c1ccccc1)C2", "note": "(some centres unmarked) [atropine]", "values": [{"measurement": "diopter difference", "setting": "[1]; [13]", "value": "~+0.8 diopter"}, {"measurement": "reduction of myopic progression", "setting": "[1]; [13]", "value": 77, "unit": "%"}, {"measurement": "axial length", "setting": "[1]; 1% atropine nightly over two years", "value": "remained unchanged"}]}
{"compound": "NCCc1ccc(O)c(O)c1", "note": "[dopamine, dopamine hydrochloride]", "values": [{"measurement": "concentration of dopaminergic derivatives in the vitreous", "setting": "[2]", "value": 375.1, "unit": "ng/mL"}, {"measurement": "fold higher intravitreal concentration as compared to etilevodopa 10%", "setting": "[2]", "value": 10, "unit": "fold"}]}
{"compound": "CCOC(=O)[C@@H](N)Cc1ccc(O)c(O)c1", "note": "[etilevodopa]", "values": [{"measurement": "AUC0→∞", "setting": "[3]; blood", "value": 11.2, "unit": "ng·h/mL"}, {"measurement": "AUC0→∞", "setting": "[3]; retina/vitreous", "value": 818, "unit": "ng·h/mL"}, {"measurement": "AUC0→∞", "setting": "[3]; whole eye", "value": 4300, "unit": "ng·h/mL"}, {"measurement": "direct toxicity", "setting": "[4]; four-week application as a topical eye drop", "value": "no evidence of direct toxicity"}, {"measurement": "ERG A-wave amplitude, treated vs control eyes", "setting": "[4]; in vivo", "value": "no statistically significant difference"}, {"measurement": "ERG B-wave amplitude, treated vs control eyes", "setting": "[4]; in vivo", "value": "no statistically significant difference"}, {"measurement": "OCT retinal structure", "setting": "[4]; in vivo", "value": "did not demonstrate any qualitative structural changes"}, {"measurement": "clinical eye photos (inflammatory response, corneal opacity, fundus abnormalities, conjunctival redness)", "setting": "[4]; in vivo", "value": "no evidence of inflammatory response, corneal opacity, fundus abnormalities, or conjunctival redness"}, {"measurement": "cornea and lens clarity", "setting": "[4]; in vivo", "value": "remained clear"}, {"measurement": "overall retina morphology and blood vessels", "setting": "[4]; in vivo", "value": "remained unchanged"}, {"measurement": "retinal detachment, edema or inflammation", "setting": "[4]; in vivo", "value": "No retinal detachment, edema or inflammation was observed"}, {"measurement": "TUNEL+ DAPI+ cells", "setting": "[5]", "value": "no TUNEL+ DAPI+ cells observed"}, {"measurement": "hematoxylin and eosin staining of the retina", "setting": "[5]", "value": "no infiltration of inflammatory cells, fibrosis or morphological changes"}, {"measurement": "number of cleaved caspase-3+ DAPI+ cells, treatment vs control", "setting": "[5]", "value": "no statistically significant change"}, {"measurement": "maximum solubility", "setting": "[6]; PBS, pH 7.4", "value": 10, "unit": "%"}, {"measurement": "rat behavior (activity levels, aggression, feeding pattern, weight gain)", "setting": "[7]", "value": "no obvious changes in rat behavior"}, {"measurement": "corneal penetration as compared to levodopa at a given concentration", "setting": "[8]", "value": "did not exhibit enhanced corneal penetration"}]}
{"compound": "CNCCc1ccc(OC(=O)C(C)C)c(OC(=O)C(C)C)c1", "note": "[ibopamine]", "values": [{"measurement": "patients who stopped using the drug due to follicular conjunctivitis or irritation", "setting": "[9]", "value": "8 of 17"}]}
{"compound": "N[C@@H](Cc1ccc(O)c(O)c1)C(=O)O", "note": "[levodopa]", "values": [{"measurement": "maximum concentration achievable", "setting": "[6]; distilled water", "value": 0.5, "unit": "%"}, {"measurement": "EC50", "setting": "[10]", "value": "~7.9", "unit": "ng/mL"}, {"measurement": "concentration of dopaminergic derivatives in the vitreous", "setting": "[2]", "value": 11.9, "unit": "ng/mL"}, {"measurement": "EC50", "setting": "[11]; intravitreal administration, 10 μL dose, read-out: EC50 for a reduction of axial elongation", "value": 800, "unit": "nM"}, {"measurement": "EC50 for a reduction of axial elongation", "setting": "[11]; topical levodopa", "value": 0.05, "unit": "%"}]}
{"compound": "insulin (Insulin B chain AANQHLCGSHLVEALYLVCGERGFFYSPKA; Insulin A chain GIVEQCCHNTCSLYQLENYCN; UniProt P67970 25-54; P67970 87-107, looked up) [insulin injected into chick eyes treated with negative lenses]", "values": [{"measurement": "increase in intravitreal dopamine", "setting": "[12]", "value": 2, "unit": "fold"}]}
